According to US20230092163A1, “COMPOUNDS AND COMPOSITIONS FOR TREATING CONDITIONS ASSOCIATED WITH STING ACTIVITY” (IFM Due, Inc., priority 2019, published 2023):

Molecular target: STING (Homo sapiens, UniProt Q86WV6, G230A/H232R/R293Q/R71H)
Experiment: STING reporter assay: THP1-Dual KO-IFNAR2 cells stimulated with 2′3′cGAMP, luciferase reporter activity
Type: cell-based
Settings: 15 μM 2′3′cGAMP, 24h
Method: STING pathway activation by the compounds described herein were measured using THP1-Dual™ cells (KO-IFNAR2).
THP1-Dual™ KO-IFNAR2 Cells (obtained from invivogen) were maintained in RPMI, 10% FCS, 5 ml P/S, 2 mM L-glut, 10 mM Hepes, and 1 mM sodium pyruvate. Compounds were spotted in empty 384 well tissue culture plates (Greiner 781182) by Echo for a final concentration of 0.0017-100 μM. Cells were plated into the TC plates at 40 μL per well, 2×10E6 cells/mL. For activation with STING ligand, 2′3′cGAMP (MW 718.38, obtained from Invivogen), was prepared in Optimem media.
The following solutions were prepared for each 1×384 plate: • Solution A: 2 mL Optimem with one of the following stimuli: • 60 uL of 10 mM 2′3′cGAMP ->150 μM stock • Solution B: 2 mL Optimem with 60 μL Lipofectamine 2000->Incubate 5 min at RT
2 mL of solution A and 2 ml Solution B was mixed and incubated for 20 min at room temperature (RT). 20 uL of transfection solution (A+B) was added on top of the plated cells, with a final 2′3′cGAMP concentration of 15 μM. The plates were then centrifuged immediately at 340 g for 1 minute, after which they were incubated at 37° C., 5% CO2, >98% humidity for 24h. Luciferase reporter activity was then measured. EC50 values were calculated by using standard methods known in the art.
Luciferase reporter assay: 10 μL of supernatant from the assay was transferred to white 384-plate with flat bottom and squared wells. One pouch of QUANTI-Luc™ Plus was dissolved in 25 mL of water. 100 μL of QLC Stabilizer per 25 mL of QUANTI-Luc™ Plus solution was added. 50 μL of QUANTI-Luc™ Plus/QLC solution per well is then added. Luminescence is measured on a Platereader (e.g., Spectramax I3X (Molecular Devices GF3637001)).
Luciferase reporter activity was then measured. EC50 values were calculated by using standard methods known in the art.

Sequence of STING (Q86WV6 whole entry R71H/G230A/H232R/R293Q): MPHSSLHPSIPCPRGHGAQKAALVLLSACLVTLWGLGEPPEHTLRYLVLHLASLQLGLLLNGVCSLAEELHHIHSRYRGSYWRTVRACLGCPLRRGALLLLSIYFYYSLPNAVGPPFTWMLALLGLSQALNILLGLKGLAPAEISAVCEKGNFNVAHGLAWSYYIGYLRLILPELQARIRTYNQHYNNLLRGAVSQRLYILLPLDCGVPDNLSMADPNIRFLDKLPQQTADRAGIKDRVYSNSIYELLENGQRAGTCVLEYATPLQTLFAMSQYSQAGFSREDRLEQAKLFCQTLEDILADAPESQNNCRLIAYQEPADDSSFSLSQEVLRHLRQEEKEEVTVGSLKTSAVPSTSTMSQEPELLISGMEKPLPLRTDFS

Row | SMILES | EC50 (class symbols) [µM] | EC50 (numeric bounds) [µM]
1 | CN(C(=O)Nc1ccc(C(F)(F)F)cc1)c1ccc2[nH]ccc2c1 [Compound 376] | 5 to 100 | 
2 | O=C(Nc1cnc(N2CC(F)(F)C2)c(F)c1)Nc1cc(Cl)c2cc[nH]c2c1 [Compound 516] | 0.2 to 1 | 
3 | CC(C)(C)c1cccc(Nc2ccc3cc[nH]c3c2)n1 [Compound 420, N-(6-(tert-butyl)pyridin-2-yl)-1H-indol-6-amine] | 1 to 5 | 
4 | CCCCC1CCC(NC(=O)Nc2ccc3[nH]ccc3c2)CC1 (stereo not drawn) [Compound 379] |  | > 5
5 | COc1ccc2c(Cl)cc(Nc3ccc4cc[nH]c4c3)nc2c1 [Compound 588, 4-chloro-N-(1H-indol-6-yl)-7-methoxyquinolin-2-amine] | 1 to 5 | 
6 | COc1nc(Nc2ccc3cc[nH]c3c2)ccc1C#N [Compound 603, 6-[(1H-indol-6-yl)amino]-2-methoxypyridine-3-carbonitrile] |  | > 30
7 | Cc1ncccc1-n1cc(C#N)c2ccc(NC(=O)Nc3ccc(C(F)(F)F)cc3)cc21 [Compound 527] | 5 to 100 | 
8 | O=C(NCc1ccc(OCC(F)(F)F)nc1)Nc1ccc2[nH]ccc2c1 [Compound 296] |  | > 30
9 | CCCCCCCCCCCCCCNC(=O)Nc1ccc2cc[nH]c2c1 [Compound 236] | 0.2 to 1 | 
10 | O=C(Nc1ccc2[nH]ccc2c1)Nc1cc(C2CCC2)no1 [Compound 302] | 5 to 100 | 
11 | O=C(NCc1csc(-c2ccc(Cl)cc2)n1)Nc1ccc2[nH]ccc2c1 [Compound 350] |  | > 30
12 | O=C(NCCC1CC1)Nc1ccc2cc[nH]c2c1 [Compound 162] | 5 to 100 | 
13 | O=C(NCC1(c2cccc(Cl)c2)CCOCC1)Nc1ccc2cc[nH]c2c1 [Compound 154] |  | > 30
14 | FC(F)(F)c1nc(Nc2cc(Cl)c3cc[nH]c3c2)ccc1Cl [Compound 568] | 0.2 to 1 | 
15 | O=C(Nc1ccc2cc[nH]c2c1)NC1CCC2(CCCCC2)OC1 (stereo not drawn) [Compound 243] | 5 to 100 | 
16 | N#Cc1ccc(CNC(=O)Nc2ccc3[nH]ccc3c2)c(C(F)(F)F)c1 [Compound 276] |  | > 30
17 | Clc1cc(Cl)c2ccc(Nc3ccc4cc[nH]c4c3)nc2c1 [Compound 577, 5,7-dichloro-N-(1H-indol-6-yl)quinolin-2-amine] | 0.2 to 1 | 
18 | Cc1ccccc1CNC(=O)Nc1ccc2cc[nH]c2c1 [Compound 224] | 1 to 5 | 
19 | Cc1cccc(CNC(=O)Nc2ccc3[nH]ccc3c2)c1 [Compound 340] |  | > 30
20 | O=C(Nc1ccc(C(F)(F)F)cc1)Nc1cc(C(=O)OC2CCCC2)c2cc[nH]c2c1 [Compound 602, cyclopentyl 6-(3-(4-(trifluoromethyl)phenyl)ureido)-1H-indole-4-carboxylate] | 1 to 5 | 
21 | O=C(Nc1ccc2cc[nH]c2c1)Nc1ccccc1F [Compound 230] |  | > 30
22 | C[C@@H](NC(=O)Nc1cc(Cl)c2cc[nH]c2c1)c1cc(Cl)cc(C(F)(F)F)c1 [Compound 521, (R)-1-(4-chloro-1H-indol-6-yl)-3-(1-(3-chloro-5-(trifluoromethyl)phenyl)ethyl)urea] | 1 to 5 | 

Row | SMILES | EC50 (class symbols) [µM] | EC50 (numeric bounds) [µM]
23 | CC1(CNC(=O)Nc2ccc3[nH]ccc3c2)CCC(F)(F)CC1 [Compound 311] |  | > 30
24 | O=C(Nc1ccc2[nH]ccc2c1)NC1Cc2ccccc2C1 [Compound 357] |  | > 30
25 | O=C(Nc1ccc2nc(C(F)(F)F)ccc2c1)Nc1ccc2[nH]ccc2c1 [Compound 287] |  | > 30
26 | CN1CCC(COc2cnc(Nc3ccc4cc[nH]c4c3)nc2)CC1 [Compound 414, N-(5-((1-methylpiperidin-4-yl)methoxy)pyrimidin-2-yl)-1H-indol-6-amine] |  | > 30
27 | FC(F)(F)Oc1cccc(Nc2ccc3cc[nH]c3c2)n1 [Compound 409, N-(6-(trifluoromethoxy)pyridin-2-yl)-1H-indol-6-amine] |  | > 30
28 | O=C(Nc1ccc(C(F)(F)F)cc1)Nc1ccc2[nH]cc(-c3cn[nH]c3)c2c1 [Compound 345] | 5 to 100 | 
29 | Fc1cc(C(F)(F)F)c2ccc(Nc3ccc4cc[nH]c4c3)nc2c1 [Compound 558] | 0.2 to 1 | 
30 | CN(C)CCc1cc(NC(=O)Nc2ccc(C(F)(F)F)cc2)cc2[nH]ccc12 [Compound 513] | 5 to 100 | 
31 | O=C(NCCc1ccccc1Cl)Nc1ccc2cc[nH]c2c1 [Compound 211] | 1 to 5 | 
32 | CNC(=O)Cc1c[nH]c2cc(NC(=O)Nc3ccc(C(F)(F)F)cc3)ccc12 [Compound 540] | 5 to 100 | 
33 | Cc1ccc(CCNC(=O)Nc2ccc3cc[nH]c3c2)cc1C [Compound 186] | 1 to 5 | 
34 | Cc1nc(Nc2ccc3cc[nH]c3c2)ccc1Nc1ccc2cc[nH]c2c1 [Compound 583, N2,N5-bis(1H-indol-6-yl)-6-methylpyridine-2,5-diamine] | 5 to 100 | 
35 | CC[C@H](NC(=O)Nc1ccc2[nH]ccc2c1)c1ccccc1 [Compound 358] |  | > 30
36 | C1=C(c2ccc3ccc(Nc4ccc5cc[nH]c5c4)nc3c2)CCCC1 [Compound 606, 7-(cyclohex-1-en-1-yl)-N-(1H-indol-6-yl)quinolin-2-amine] | 1 to 5 | 
37 | FC(F)(F)Oc1ccc(Nc2ccc3cc[nH]c3c2)nc1 [Compound 403, N-(5-(trifluoromethoxy)pyridin-2-yl)-1H-indol-6-amine] | 5 to 100 | 
38 | Cc1ccccc1CNC(=O)Nc1ccc2[nH]ccc2c1 [Compound 338] |  | > 30
39 | Clc1ccc2ccc(Nc3ccc4cc[nH]c4c3)nc2c1 [Compound 589, 7-chloro-N-(1H-indol-6-yl)quinolin-2-amine] | 0.2 to 1 | 
40 | c1cnc(Nc2ccc3cc[nH]c3c2)c(C2CC2)c1 [Compound 394, N-(3-cyclopropylpyridin-2-yl)-1H-indol-6-amine] |  | > 30
41 | O=C(NCCOc1cccc(Br)c1)Nc1ccc2[nH]ccc2c1 [Compound 295] |  | > 30
42 | c1cc2ccnc(Nc3ccc4cc[nH]c4c3)c2cn1 [Compound 415, N-(1H-indol-6-yl)-2,7-naphthyridin-1-amine] |  | > 30
43 | CC1(CNC(=O)Nc2ccc3cc[nH]c3c2)CCC(F)(F)CC1 [Compound 171] |  | > 30
44 | CN(C)S(=O)(=O)c1ccc(NC(=O)Nc2ccc3cc[nH]c3c2)cc1 [Compound 202] | 5 to 100 | 

Row | SMILES | EC50 (class symbols) [µM] | EC50 (numeric bounds) [µM]
45 | O=C(Nc1cccc(S(=O)(=O)C(F)(F)F)c1)Nc1ccc2cc[nH]c2c1 [Compound 203] | 1 to 5 | 
46 | CN(C)C(=O)c1cc(NC(=O)Nc2ccc(C(F)(F)F)cc2)cc2[nH]ccc12 [Compound 547] | 5 to 100 | 
47 | CC(NC(=O)Nc1cc(Cl)c2cc[nH]c2c1)c1cc(Cl)cc(C(F)(F)F)c1 (stereo not drawn) [Compound 537] | 0.2 to 1 | 
48 | O=C(Nc1cnc(N2CC(F)(F)C2)c(Cl)c1)Nc1ccc2c(F)c[nH]c2c1 [Compound 514] | 0.2 to 1 | 
49 | O=C(NCCN1CCC(Cc2ccccc2)CC1)Nc1ccc2[nH]ccc2c1 [Compound 294] |  | > 30
50 | O=C(NCc1cc(Cl)cc(C(F)(F)F)c1)Nc1ccc2cc[nH]c2c1 [Compound 205] | 0.2 to 1 | 
51 | Cc1ccc(CNC(=O)Nc2ccc3cc[nH]c3c2)cc1 [Compound 192] |  | > 30
52 | FC(F)(F)c1cc(Cl)cc2nc(Nc3ccc4cc[nH]c4c3)ccc12 [Compound 563] | 0.2 to 1 | 
53 | CC(C)(C)n1cc(NC(=O)Nc2ccc3cc[nH]c3c2)cn1 [Compound 218] |  | > 30
54 | O=C(Nc1cccc(S(=O)(=O)N2CCCC2)c1)Nc1ccc2cc[nH]c2c1 [Compound 168] | 5 to 100 | 
55 | Cc1cc(CNC(=O)Nc2ccc3[nH]ccc3c2)nn1C [Compound 322] |  | > 30
56 | CC(C)CCNC(=O)Nc1ccc2cc[nH]c2c1 [Compound 215] | 1 to 5 | 
57 | COc1cc(NC(=O)NCc2cc(Cl)cc(C(F)(F)F)c2)cc2[nH]ccc12 [Compound 503] | 0.2 to 1 | 
58 | CC[C@H](NC(=O)Nc1ccc2cc[nH]c2c1)c1ccccc1 [Compound 222] | 5 to 100 | 
59 | O=C(Nc1cccc(OC(F)F)c1)Nc1ccc2[nH]ccc2c1 [Compound 343] | 5 to 100 | 
60 | CC(C)(C)OC(=O)N1CCC(c2ccnc(Nc3ccc4cc[nH]c4c3)n2)CC1 [Compound 429, tert-butyl4-(2-((1H-indol-6-yl)amino)pyrimidin-4-yl)piperidine-1-carboxylate] | 5 to 100 | 
61 | CC(C)(C)OC(=O)N1CC(CCNC(=O)Nc2ccc3cc[nH]c3c2)C1 [Compound 178] |  | > 30
62 | N#Cc1ccc(CNC(=O)Nc2ccc3cc[nH]c3c2)c(C(F)(F)F)c1 [Compound 159] |  | > 30
63 | O=C(NCCc1c(F)cccc1Cl)Nc1ccc2[nH]ccc2c1 [Compound 323] |  | > 30
64 | FC(F)(F)c1ccc2ccc(Nc3cc(Cl)c4cc[nH]c4c3)nc2c1 [Compound 604] | 0.2 to 1 | 
65 | O=C(Nc1ccc(F)c(F)c1)Nc1ccc2cc[nH]c2c1 [Compound 164] | 0.2 to 1 | 
66 | O=C(Nc1cnc(N2CC(F)(F)C2)c(F)c1)Nc1ccc2c(F)c[nH]c2c1 [Compound 531] | 0.2 to 1 | 
